{"source": "patent US8124639B2", "about": "“Bicyclic [3.1.0] heteroaryl amides as type 1 glycine transport inhibitors” (Pfizer Inc., priority 2005, dated 2012)", "origin": "cited, not measured here", "system": "NMDA receptor", "conditions": "effect blocked by a specific NMDA-site antagonist and a glycine-site antagonist"}
{"molecule": "CN(CCC(Oc1ccc(-c2ccccc2)cc1)c1ccc(F)cc1)CC(=O)O", "note": "(stereo not shown) [NFPS]", "values": [{"measurement": "effect on postsynaptic current driven by the NMDA receptor", "result": "increased the postsynaptic current driven by the NMDA receptor"}]}
